From patent publication US6524800B2, “Exploiting genomics in the search for new drugs” (Affymetrix, Inc., priority 1997, dated 2003)
Where two headings read alike, the source gives them in different places.

Tests used:
[1] = molecular target: c-jun NH2-terminal kinase; experiment: purified kinase assay, c-jun NH2-terminal kinase; type: biochemical, human
Excerpt: (§1) To examine the effects of a range of diverse substituents on the purine ring, we synthesized combinatorial libraries in which the 2, 6, and 9 positions could be varied starting with a 2-flouro-6-chloropurine framework. (FIG. 1A) (2,3). Substitution chemistry was used to install amines at the 2 and 6 positions, and a Mitsunobu reaction (4,5) was used to alkylate the N9 position of the purine core. The subsitution chemistry allows introduction of primary and secondary amines bearing a wide range of functional groups, whereas the Mitsunobu reaction tolerates primary and secondary alcohols lacking additional acidic hydrogens. Newly appended groups can be modified combinatorially in subsequent steps with a variety of chemistries including acylation, reductive amination, and Suzuki coupling reactions (6), During library synthesis, one position is held invariant to allow attachment to the solid support. Libraries are synthesized in a spatially separated format with either a pin apparatus (7) or polystyrene resin and screened for kinase inhibitors with a 96-well, solution-phase phosphorylation assay.

[2] = molecular target: cAMP-dependent protein kinase (Homo sapiens, UniProt P17612); experiment: purified kinase assay, cAMP-dependent protein kinase; type: biochemical
Excerpt: as §1

[3] = molecular target: cGMP-dependent protein kinase (Homo sapiens, UniProt Q13976); experiment: purified kinase assay, cGMP-dependent protein kinase; type: biochemical
Chain of cGMP-dependent protein kinase (Q13976 whole entry): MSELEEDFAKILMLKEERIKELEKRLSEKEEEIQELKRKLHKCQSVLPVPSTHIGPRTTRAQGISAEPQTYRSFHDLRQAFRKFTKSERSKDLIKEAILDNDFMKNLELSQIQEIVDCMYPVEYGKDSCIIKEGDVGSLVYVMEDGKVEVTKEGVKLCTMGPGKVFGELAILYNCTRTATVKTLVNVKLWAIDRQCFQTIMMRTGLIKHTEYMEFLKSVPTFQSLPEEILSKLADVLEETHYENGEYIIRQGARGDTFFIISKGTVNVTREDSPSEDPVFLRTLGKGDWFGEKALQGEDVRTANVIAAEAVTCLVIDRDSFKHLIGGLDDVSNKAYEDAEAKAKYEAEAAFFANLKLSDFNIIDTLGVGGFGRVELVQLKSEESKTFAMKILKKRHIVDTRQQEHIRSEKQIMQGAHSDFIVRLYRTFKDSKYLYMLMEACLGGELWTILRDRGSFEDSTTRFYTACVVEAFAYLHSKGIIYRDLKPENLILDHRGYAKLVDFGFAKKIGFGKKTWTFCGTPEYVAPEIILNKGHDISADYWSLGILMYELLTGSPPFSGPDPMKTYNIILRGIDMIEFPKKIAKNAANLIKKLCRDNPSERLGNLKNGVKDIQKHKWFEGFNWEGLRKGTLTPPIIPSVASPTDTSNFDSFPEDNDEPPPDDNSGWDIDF
Excerpt: as §1

[4] = molecular target: Casein kinase 1; experiment: purified kinase assay, Casein kinase 1; type: biochemical, human
Excerpt: as §1

[5] = molecular target: Insulin-receptor tyrosine kinase (Homo sapiens, UniProt P06213); experiment: purified kinase assay, Insulin-receptor tyrosine kinase; type: biochemical
Chain of Insulin-receptor tyrosine kinase (P06213 28-1382): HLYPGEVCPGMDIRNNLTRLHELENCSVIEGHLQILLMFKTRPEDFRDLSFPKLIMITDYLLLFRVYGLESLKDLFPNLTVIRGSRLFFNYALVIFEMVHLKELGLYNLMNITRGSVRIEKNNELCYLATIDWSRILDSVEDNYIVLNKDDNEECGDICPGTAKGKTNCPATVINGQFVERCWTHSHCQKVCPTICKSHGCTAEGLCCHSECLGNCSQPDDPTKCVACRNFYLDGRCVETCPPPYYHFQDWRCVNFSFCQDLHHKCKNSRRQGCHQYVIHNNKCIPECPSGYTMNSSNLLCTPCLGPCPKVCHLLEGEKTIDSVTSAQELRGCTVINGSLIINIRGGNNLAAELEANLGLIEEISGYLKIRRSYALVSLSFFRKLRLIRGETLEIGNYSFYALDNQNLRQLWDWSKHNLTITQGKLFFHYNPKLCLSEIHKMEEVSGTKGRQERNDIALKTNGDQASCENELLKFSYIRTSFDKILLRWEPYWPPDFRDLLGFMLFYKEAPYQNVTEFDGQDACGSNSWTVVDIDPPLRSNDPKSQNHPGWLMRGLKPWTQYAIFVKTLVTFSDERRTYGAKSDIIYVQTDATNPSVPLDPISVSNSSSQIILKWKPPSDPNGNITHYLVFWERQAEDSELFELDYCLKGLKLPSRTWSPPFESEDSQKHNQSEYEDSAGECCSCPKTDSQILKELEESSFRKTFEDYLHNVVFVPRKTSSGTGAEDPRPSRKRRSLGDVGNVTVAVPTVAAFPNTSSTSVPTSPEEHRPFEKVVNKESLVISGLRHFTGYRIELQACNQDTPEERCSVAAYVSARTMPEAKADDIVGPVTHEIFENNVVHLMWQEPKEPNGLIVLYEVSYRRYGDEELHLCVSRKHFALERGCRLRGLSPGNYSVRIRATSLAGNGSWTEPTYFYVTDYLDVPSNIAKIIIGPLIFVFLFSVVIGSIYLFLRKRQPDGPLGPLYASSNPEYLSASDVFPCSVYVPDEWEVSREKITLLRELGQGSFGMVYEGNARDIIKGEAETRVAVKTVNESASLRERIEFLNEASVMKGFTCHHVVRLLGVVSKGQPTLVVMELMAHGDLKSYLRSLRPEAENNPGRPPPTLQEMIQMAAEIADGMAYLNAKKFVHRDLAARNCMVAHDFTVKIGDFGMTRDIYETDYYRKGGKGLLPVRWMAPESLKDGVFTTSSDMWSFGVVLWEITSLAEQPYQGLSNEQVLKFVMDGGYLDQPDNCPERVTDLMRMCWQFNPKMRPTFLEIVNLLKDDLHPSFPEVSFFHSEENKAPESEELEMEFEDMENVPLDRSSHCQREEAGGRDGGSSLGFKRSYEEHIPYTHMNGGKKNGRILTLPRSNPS
Excerpt: as §1

[6] = tested on: drug-sensitized yeast strain; experiment: yeast growth inhibition; type: cell-based; details: Saccharomyces cerevisiae; strain with drug-sensitizing deletions (erg6, pdr5, snq2)
[7] = tested on: mRNA levels of nearly all yeast genes; experiment: transcript profiling with high-density oligonucleotide expression arrays; type: cell-based, S. cerevisiae; details: for number of genes with greater than twofold change in transcript level: more than 6200 genes monitored; for YCRX13W SOL2 transcript INCREASE: FLA UNIQUE
Method: In addition to measuring the inhibitory effects of purine derivatives in kinase assays and assays of cell growth, their effects on the mRNA levels of nearly all yeast genes were determined with high-density oligonucleotide expression arrays (17, 18). These arrays (19, 20) make it possible to measure quantitatively and in parallel mRNA levels for a very large number of genes after any chemical, environmental, or genetic perturbation.
Yeast cultures were grown to late logarithmic phase (15), treated with 25 μM concentrations of the inhibitors for 2 hours, after which cellular polyadenylated mRNA was isolated and converted to biotin-labeled complementary RNA (cRNA) (17, 18). The labeled cRNA was then hybridized to a set of four arrays containing more than 260,000 25-nucleotide oligomers (20).
15. […] Three cultures [110 ml, in yeast extract, peptone, and dextrose (YPD)] were inoculated with single colonies of YRP1 (MAT, erg6::LEU2, pdr5::TRP1, snq2::HIS6) and grown at 30° C. with constant agitation in a water bath incubator. When the cell density reached an optical density (OD) of 0.9 (at a wavelength of 600 nm), 27.5 μl of a 100 mM dimethyl sulfoxide (DMSO) stock solution of 52 or flavopiridol or DMSO alone was added. After 2 hours the cells were harvested by centrifugation and flash frozen with liquid nitrogen. For the temperature-sensitive cdc28 mutants, three cultures (75 ml, YPD) of AFS 199 (cdc28-13), AA104 (cdc28-4), and their isogenic background strain AFS34 (MATa, ade2-1, his3-11, leu2-3, trp1-1, ura3) were grown from single colonies to an OD of 0.9 (600 nm) and harvested as described. Frozen cells were stored at […]

[8] = tested on: yeast cells; experiment: yeast arrest morphology and FACS; type: cell-based
Excerpt: 16. The diminished growth inhibitory activity of compound 52Me is unlikely to result from poorer bioavailability because a similar N6 methylation is observed to increase the in vivo potency of a related series of purine-based inhibitors. The residual growth inhibitory activity of 52Me likely reflects activity against other cellular targets.

[9] = molecular target: cdc2-cyclin B; experiment: purified kinase phosphorylation assay, cdc2-cyclin B; type: biochemical, Starfish
Excerpt: as §1
9. Starfish is the major source for cdc2-cyclin B kinase.

[10] = molecular target: T1, Cdc28p (Saccharomyces cerevisiae, UniProt P00546); experiment: kinase assay in immunoprecipitates, Cdc28p; type: biochemical, yeast; details: for inhibition of Cdc28p (in words): immunoprecipitates
T1 construct: made in house
T1 sequence (P00546 whole entry): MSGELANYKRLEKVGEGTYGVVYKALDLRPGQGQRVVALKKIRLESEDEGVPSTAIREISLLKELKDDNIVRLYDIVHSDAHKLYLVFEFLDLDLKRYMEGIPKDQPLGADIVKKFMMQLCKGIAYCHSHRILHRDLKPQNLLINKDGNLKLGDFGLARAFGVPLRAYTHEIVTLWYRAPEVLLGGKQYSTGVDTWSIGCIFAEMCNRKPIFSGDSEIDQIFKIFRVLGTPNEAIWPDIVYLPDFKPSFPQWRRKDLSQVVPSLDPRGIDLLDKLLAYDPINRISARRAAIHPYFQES

[11] = molecular target: T2, Pho85p (Saccharomyces cerevisiae, UniProt P17157); experiment: kinase assay in immunoprecipitates, Pho85p; type: biochemical, yeast; details: for inhibition of Pho85p (in words): immunoprecipitates
T2 construct: made in house
T2 sequence (P17157 whole entry): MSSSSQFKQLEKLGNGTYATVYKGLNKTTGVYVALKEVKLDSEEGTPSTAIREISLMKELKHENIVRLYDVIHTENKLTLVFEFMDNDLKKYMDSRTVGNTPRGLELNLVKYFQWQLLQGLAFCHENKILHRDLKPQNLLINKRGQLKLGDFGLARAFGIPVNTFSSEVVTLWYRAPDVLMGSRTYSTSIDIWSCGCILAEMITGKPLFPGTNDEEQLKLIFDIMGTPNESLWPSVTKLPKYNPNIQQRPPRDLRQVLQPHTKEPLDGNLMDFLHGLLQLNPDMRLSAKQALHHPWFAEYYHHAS

[12] = molecular target: T3, Kin28p (Saccharomyces cerevisiae, UniProt P06242); experiment: kinase assay in immunoprecipitates, Kin28p; type: biochemical; details: immunoprecipitated yeast kinase
T3 construct: made in house
T3 sequence (P06242 whole entry): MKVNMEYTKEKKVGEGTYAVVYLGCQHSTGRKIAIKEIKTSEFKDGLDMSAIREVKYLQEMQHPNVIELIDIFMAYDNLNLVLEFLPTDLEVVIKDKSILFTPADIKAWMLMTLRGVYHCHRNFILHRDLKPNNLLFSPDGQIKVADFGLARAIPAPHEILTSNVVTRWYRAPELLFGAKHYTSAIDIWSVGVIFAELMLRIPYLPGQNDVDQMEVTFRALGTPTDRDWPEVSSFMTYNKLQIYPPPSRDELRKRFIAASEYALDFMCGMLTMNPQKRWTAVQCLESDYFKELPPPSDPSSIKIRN
T3 sequence (P37366 whole entry partner): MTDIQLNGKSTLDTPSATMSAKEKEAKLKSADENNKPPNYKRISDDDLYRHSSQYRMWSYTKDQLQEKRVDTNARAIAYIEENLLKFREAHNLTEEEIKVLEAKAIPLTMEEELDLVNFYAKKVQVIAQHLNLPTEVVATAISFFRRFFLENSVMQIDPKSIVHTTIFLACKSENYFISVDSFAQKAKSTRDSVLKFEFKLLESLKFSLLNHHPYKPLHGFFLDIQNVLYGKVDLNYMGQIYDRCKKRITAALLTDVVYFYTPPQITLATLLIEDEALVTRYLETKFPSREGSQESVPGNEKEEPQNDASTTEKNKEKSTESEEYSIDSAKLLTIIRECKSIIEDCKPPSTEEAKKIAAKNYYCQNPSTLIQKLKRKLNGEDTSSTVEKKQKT

[13] = molecular target: T4, Srb10 (Saccharomyces cerevisiae, UniProt P39073); experiment: kinase assay in immunoprecipitates, Srb10; type: biochemical; details: immunoprecipitated yeast kinase
T4 construct: made in house

[14] = molecular target: T5, Cak1p (Saccharomyces cerevisiae, UniProt P43568); experiment: kinase assay in immunoprecipitates, Cak1p; type: biochemical; details: immunoprecipitated yeast kinase
T5 construct: made in house
T5 sequence (P43568 whole entry): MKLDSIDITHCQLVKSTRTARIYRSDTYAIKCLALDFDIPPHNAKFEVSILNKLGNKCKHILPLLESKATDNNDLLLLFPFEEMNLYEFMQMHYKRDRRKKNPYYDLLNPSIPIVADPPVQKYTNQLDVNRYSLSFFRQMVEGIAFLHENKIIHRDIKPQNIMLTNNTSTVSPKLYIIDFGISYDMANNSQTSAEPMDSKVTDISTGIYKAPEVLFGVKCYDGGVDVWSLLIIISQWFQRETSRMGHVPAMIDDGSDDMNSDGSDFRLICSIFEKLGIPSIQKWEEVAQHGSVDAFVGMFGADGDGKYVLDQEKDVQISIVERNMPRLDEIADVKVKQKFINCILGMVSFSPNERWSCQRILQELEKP

[15] = tested on: four yeast CDKs (Cdc28p, Kin28p, Pho85p, and Srb10p) and the related kinase Cak1p; experiment: yeast kinase panel in immunoprecipitates; type: biochemical
[16] = tested on: human lung fibroblast cells; details: cited from earlier work
[17] = molecular target: cdk2-cyclin A (Homo sapiens, UniProt P24941); experiment: purified kinase assay, cdk2-cyclin A; type: biochemical
Excerpt: as §1

[18] = molecular target: cdk2-cyclin E (Homo sapiens, UniProt P24941); experiment: purified kinase assay, cdk2-cyclin E; type: biochemical
Excerpt: as §1

[19] = molecular target: cdk4-cyclin D1 (Homo sapiens, UniProt P11802); experiment: purified kinase assay, cdk4-cyclin D1; type: biochemical
Excerpt: as §1

[20] = molecular target: cdk5-p35 (Homo sapiens, UniProt Q00535); experiment: purified kinase assay, cdk5-p35; type: biochemical
Chain of cdk5-p35 (Q00535 whole entry): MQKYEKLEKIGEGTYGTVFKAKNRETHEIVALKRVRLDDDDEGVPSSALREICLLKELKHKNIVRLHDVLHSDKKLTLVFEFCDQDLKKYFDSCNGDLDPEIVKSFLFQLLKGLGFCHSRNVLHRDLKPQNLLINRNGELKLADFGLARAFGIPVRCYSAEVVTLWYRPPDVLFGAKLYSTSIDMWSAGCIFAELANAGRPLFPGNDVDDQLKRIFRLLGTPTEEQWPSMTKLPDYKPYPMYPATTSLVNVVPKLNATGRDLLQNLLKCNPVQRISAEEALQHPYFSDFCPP
Chain of cdk5-p35 (Q15078 whole entry partner): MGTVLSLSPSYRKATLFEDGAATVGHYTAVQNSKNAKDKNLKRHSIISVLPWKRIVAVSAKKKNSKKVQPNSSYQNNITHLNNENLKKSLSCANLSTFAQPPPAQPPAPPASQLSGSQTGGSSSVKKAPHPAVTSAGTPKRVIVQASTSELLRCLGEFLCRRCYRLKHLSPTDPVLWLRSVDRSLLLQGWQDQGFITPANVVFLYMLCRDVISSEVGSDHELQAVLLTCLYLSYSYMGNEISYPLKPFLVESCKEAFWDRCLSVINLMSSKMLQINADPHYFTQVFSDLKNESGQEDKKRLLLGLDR
Excerpt: as §1

[21] = molecular target: erk1 (Homo sapiens, UniProt P27361); experiment: purified kinase assay, erk1; type: biochemical
Excerpt: as §1

[22] = molecular target: Protein kinase C (Homo sapiens, UniProt P17252); experiment: purified kinase assay, Protein kinase C (Table 1 r15); type: biochemical; details: Table 1 r15, isoform symbol not given
Excerpt: as §1

[23] = molecular target: Protein kinase C1 (Homo sapiens, UniProt P05771); experiment: purified kinase assay, Protein kinase C1 (Table 1 r16); type: biochemical
Excerpt: as §1

[24] = molecular target: Protein kinase C2 (Homo sapiens, UniProt P05771); experiment: purified kinase assay, Protein kinase C2 (Table 1 r17); type: biochemical
Excerpt: as §1

[25] = molecular target: Protein kinase C (Homo sapiens, UniProt P05129); experiment: purified kinase assay, Protein kinase C (Table 1 r18); type: biochemical; details: Table 1 r18, isoform symbol not given
Excerpt: as §1

[26] = molecular target: Protein kinase C (Homo sapiens, UniProt Q05655); experiment: purified kinase assay, Protein kinase C (Table 1 r19); type: biochemical; details: Table 1 r19, isoform symbol not given
Excerpt: as §1

[27] = molecular target: Protein kinase C (Homo sapiens, UniProt Q02156); experiment: purified kinase assay, Protein kinase C (Table 1 r20); type: biochemical; details: Table 1 r20, isoform symbol not given
Excerpt: as §1

[28] = molecular target: Protein kinase C (Homo sapiens, UniProt P24723); experiment: purified kinase assay, Protein kinase C (Table 1 r21); type: biochemical; details: Table 1 r21, isoform symbol not given
Chain of Protein kinase C (Homo sapiens, UniProt P24723) (P24723 whole entry, canonical isoform): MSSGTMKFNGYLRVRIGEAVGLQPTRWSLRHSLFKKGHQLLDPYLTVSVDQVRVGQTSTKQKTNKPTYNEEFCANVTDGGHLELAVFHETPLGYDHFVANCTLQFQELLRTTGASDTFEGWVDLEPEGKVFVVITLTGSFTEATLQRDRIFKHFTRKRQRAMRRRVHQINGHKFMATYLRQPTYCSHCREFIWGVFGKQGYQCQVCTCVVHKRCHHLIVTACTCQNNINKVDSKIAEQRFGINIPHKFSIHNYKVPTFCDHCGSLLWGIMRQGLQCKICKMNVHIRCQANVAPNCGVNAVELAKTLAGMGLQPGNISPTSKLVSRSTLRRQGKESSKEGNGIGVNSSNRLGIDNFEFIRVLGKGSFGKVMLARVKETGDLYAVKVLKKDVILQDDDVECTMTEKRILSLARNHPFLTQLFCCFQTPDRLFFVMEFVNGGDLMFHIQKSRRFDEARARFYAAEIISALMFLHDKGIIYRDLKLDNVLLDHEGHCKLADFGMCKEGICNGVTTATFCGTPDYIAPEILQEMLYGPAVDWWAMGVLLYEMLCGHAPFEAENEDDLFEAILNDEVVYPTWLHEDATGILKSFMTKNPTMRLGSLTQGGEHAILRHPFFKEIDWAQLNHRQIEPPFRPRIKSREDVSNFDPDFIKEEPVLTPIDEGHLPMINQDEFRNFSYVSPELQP
Excerpt: as §1

[29] = molecular target: Protein kinase C (Homo sapiens, UniProt Q05513); experiment: purified kinase assay, Protein kinase C (Table 1 r22); type: biochemical; details: Table 1 r22, isoform symbol not given
Excerpt: as §1

[30] = molecular target: GSK3- (Homo sapiens, UniProt P49841); experiment: purified kinase assay, GSK3-; type: biochemical
Excerpt: as §1

[31] = tested on: NCI panel of 60 human tumor cell lines; experiment: NCI panel growth inhibition; type: cell-based
[32] = tested on: KM12 colon cancer cell line; experiment: NCI panel growth inhibition, KM12; type: cell-based, human
[33] = tested on: NCI-H522 non-small cell lung cancer cell line; experiment: NCI panel growth inhibition, NCI-H522; type: cell-based, human
[34] = yeast, inhibitor versus untreated
[35] = immunoprecipitated yeast kinase

SMILES | IC50 [1] | IC50 [2] | IC50 [3] | IC50 [4] | IC50 [5] | GI50 [6] | % of transcripts with greater than twofold change ([7]; 25 μM, 2 hours) | ribosomal protein transcripts decreased at least threefold ([7]; 25 μM, 2 hours) | number of genes with greater than twofold change in transcript level ([7]; 25 μM, 2 hours) | YCRX13W SOL2 transcript INCREASE [7] | Y13R214W transcript INCREASES [7, 34] | YBL002W HTB2 transcript DECREASES [7, 34] | YBR296C transcript change (in words) [7, 34] | YGLI79 transcript change (in words) [7, 34] | YGR108W (CLB 1) transcript DECREASES [7, 34] | YKRO97W PCK1 transcript INCREASES [7, 34] | YLR178c (TFS1) transcript INCREASES [7, 34] | arrest morphology in yeast (in words) [8] | inhibition of Cdc28p (in words) [10] | inhibition of Pho85p (in words) [11] | also measured
CC(C)[C@H](CO)Nc1nc(Nc2ccc(C(=O)O)c(Cl)c2)c2ncn(C(C)C)c2n1 [purvalanol B, 2-(1R-isopropyl-2-hydroxyethylamino)-6-(3-chloro-4-carboxyanilino)-9-isopropylpurine] | > 10 µM | 3.8 µM | > 100 µM | > 3.33 µM | 2.2 µM |  |  |  |  |  |  |  |  |  |  |  |  |  |  |  | 
CN1CC[C@H](c2c(O)cc(O)c3c(=O)cc(-c4ccccc4Cl)oc23)[C@H](O)C1 [flavopiridol, reference compound] |  |  |  |  |  | 7 µM | 2% | no ribosomal protein transcript levels decreased more than threefold | 132 | 7.5-10 × INCREASE | 7-8.5 × for FLA | ˜2.7 × for FLA | VERY LARGE INCREASE (15- | INCREASES C52 & FLA | ˜2.5-3 fold with FLA) | ˜4 × with FLA fold | INCREASES ˜6x | failed to cause a uniform arrest morphology |  |  | 
CC(C)n1cnc2c(Nc3cccc(Cl)c3)nc(NCCO)nc21 [Compound 52, 2-(2-hydroxyethylamino)-6-(3-chloroanilino)-9-isopropylpurine] |  |  |  |  |  | 30 µM | 3% | 14 | 194 | C52 - much smaller inc. (NL. 8 x at most) × | (4-4.5 × for C52 | (˜4.5 × for C52 | VERY LARGE INCREASE (15- | INCREASES C52 & FLA | (˜8 fold with C52 | ˜7-8 fold with C52 | INCREASES ˜6x | failed to cause a uniform arrest morphology | inhibited | inhibited | IC50 [9]: 0.34 µM; IC50 [10, 35]: 7 µM; IC50 [11, 35]: 2 µM; IC50 [12]: > 500 µM; IC50 [13]: > 500 µM; IC50 [14]: > 500 µM; number of genes whose transcript levels were decreased at least threefold ([7]; 25 μM, 2 hours): ~50; YKLO71W transcript Increase ([7]; C52 UNIQUE): 7-12 × Increase (C52); YDR281 C transcript INCREASE [7, 34]: ˜4.5-5.5 × INCREASE; synchronization of yeast cells by FACS (in words) [8]: did not reveal synchronization
CC(C)n1cnc2c(N(C)c3cccc(Cl)c3)nc(NCCO)nc21 [Compound 52Me] |  |  |  |  |  | 200 µM | 0.03% |  | 2 |  |  |  |  |  |  |  |  | failed to cause a uniform arrest morphology |  |  | inhibition of any of the CDKs tested (in words) [15]: did not inhibit; synchronization of yeast cells by FACS (in words) [8]: did not reveal synchronization
COc1ccc(CNc2nc(N(CCO)CCO)nc3c2ncn3C(C)C)cc1 [2-(bis-(hydroxylethyl)amino)-6-(4-methoxybenzylamino)-9-isopropylpurine] |  |  |  |  |  |  |  |  |  |  |  |  |  |  |  |  |  |  |  |  | cell cycle inhibitory activity by FACS ([16]; high concentrations): both G1-S and G2-M inhibitory activity; cell cycle inhibitory activity by FACS ([16]; lower concentrations): predominant G1-S inhibition
CC(C)[C@H](CO)Nc1nc(Nc2cccc(Cl)c2)c2ncn(C(C)C)c2n1 [purvalanol A] | > 1 µM | 9 µM | > 10 µM | > 3.33 µM | 5 µM |  |  |  |  |  |  |  |  |  |  |  |  |  | inhibited | inhibited | IC50 [17]: 0.07 µM; IC50 [18]: 0.035 µM; IC50 [19]: 0.85 µM; IC50 [20]: 0.075 µM; IC50 [21]: 9 µM; IC50 [22]: > 10 µM; IC50 [23]: > 10 µM; IC50 [24]: > 10 µM; IC50 [25]: > 10 µM; IC50 [26]: > 100 µM; IC50 [27]: > 100 µM; IC50 [28]: > 100 µM; IC50 [29]: > 100 µM; IC50 [30]: > 10 µM; increase in sensitivity of two cell lines out of the 60 ([31]; KM12 and NCI-H522 versus average GI50): ~20 fold; GI50 ([31]; read-out: average GI50 (50% growth inhibition), average over 60 cell lines): 2 µM; GI50 [32]: 0.076 µM; GI50 [33]: 0.347 µM
